Measurements taken from patent US11352624B2, “Reducing nonsense-mediated MRNA decay” (Cold Spring Harbor Laboratory, priority 2013, dated 2022).

Assays:
[1] = tested on: mammalian cells carrying PTCs related to Usher syndrome, Rett syndrome, cystic fibrosis, and mucopolysaccharidosis I-Hurler (MPS I-H); details: cited from earlier work
[2] = tested on: PTC-containing HBB transcript (T39); assay: Radioactive RT-PCR of HeLa cells co-transfected with HBB reporters and ASOs; type: cell-based, human; details: for mRNA levels of PTC-containing HBB transcript (T39): HeLa cells, ASO 50 nM co-transfected with HBB Q39X gene, compared with control-ASO, percentages normalized to WT
Description: (§1) In some examples, it is desirable to start with mutations located in the last presumptive EJC-bound exon, as targeting only one junction at a time will simplify the interpretation of results. Once the effectiveness of preventing EJC deposition by ASOs is confirmed, two or more junctions are targeted. In some examples, three mutations for each gene are selected, and only mutations that lead to a transcript level <50% of the wild-type transcript will be targeted by the ASO microwalk (discussed below). […] Briefly, minigenes carrying the selected mutations and their wild-type versions are co-transfected with a GFP-expressing vector into HeLa cells. Forty-eight hours later, RNA is extracted and radioactive RT-PCR is performed. Products corresponding to the wild-type and mutant minigenes are normalized to GFP expression, and the percentage of the mutant over the wild-type transcript is calculated. In the case of integrated minigenes into U2OS cells, wild-type and mutant minigene products are normalized to endogenous housekeeping genes, e.g. GAPDH.
ASO microwalks are performed as previously described (7), altogether targeting a region that spans 33 nt from −6 to −38 of the 3′ end of exons that are EJC-bound (FIG. 2). Briefly, cell lines expressing minigenes carrying mutations in the last EJC-bound exon or their wild-type versions and GFP (by transfection using lipofectamine or induction with tetracycline) are co-transfected with each of the 15-mer ASOs, independently. […] Abrogation of NMD is assessed by RT-PCR, and the percentage of mutant transcript is calculated as described above. […]
A set of 19 overlapping 2′-O-methoxyethyl phosphorothioate (MOE-P=S) ASO 15mers targeting the canonical EJC region in exon 2 of HBB were synthesized. […] The levels of spliced HBB mRNA were then measured after transient or induced expression using radioactive RT-PCR. […] Truncated protein levels resulting from the ASO treatment were assessed by western blot analysis using anti-GFP antibody.

[3] = tested on: PTC-containing CFTR transcript (W1282X); assay: Radioactive RT-PCR of cells expressing CFTR minigene carrying W1282X, transfected with ASOs; type: cell-based, human; details: for relative potency among ASOs of each CFTR exon-exon junction (screening): boundaries 24/25, 25/26, 26/27, 19 ASOs each
Experimental: ASO microwalks are performed as previously described (7), altogether targeting a region that spans 33 nt from −6 to −38 of the 3′ end of exons that are EJC-bound (FIG. 2). Briefly, cell lines expressing minigenes carrying mutations in the last EJC-bound exon or their wild-type versions and GFP (by transfection using lipofectamine or induction with tetracycline) are co-transfected with each of the 15-mer ASOs, independently. In total, 19 ASOs that are consecutively shifted by 1 nt are tested for each EJC-bound exon-exon junction downstream of the mutations (FIG. 2). This methodology was followed in designing the sequences for the ASOs to target PTC-containing (e.g., disease-causing nonsense mutation) HBB alleles (See SEQ ID NOs 1-19), MECP2 alleles (See SEQ ID NOs 20-38), CFTR alleles (See SEQ ID NOs 39-114), DMD alleles (See SEQ ID NOs 115-190), and IDUA alleles (See SEQ ID Nos 191-268). Different concentrations of ASOs are tested to obtain a dose-response curve. In the case of genes containing more than one exon-exon junction downstream of a PTC, minigene intermediates are constructed to screen for NMD-inhibiting ASOs one junction at a time and in combination with the best targeting ASO that resulted from the screening of the upstream junction. Abrogation of NMD is assessed by RT-PCR, and the percentage of mutant transcript is calculated as described above. Because some of the ASOs might interfere with splicing-factor binding sites, it is important to determine whether the splicing of the targeted exons is adversely affected. Only the ASOs that abrogate NMD without negative effects on splicing are pursued.
Moreover, minigenes consisting of CFTR exons 22-25, 22-26 and 22-27 carrying the W1282X mutation in exon 23 as well as its restive wild-type version were generated. As described above, 19 15-mer ASOs were obtained that target a region spanning nucleotides −38 to −6 of the exons 24/25 boundary and transfected to CFTR minigene expressing cells. Once this screening identified the best NMD inhibiting ASO, it is then transfected in combination with each the 19 15-mer ASOs that target a region spanning nucleotides −38 to −6 of the exons 25/26 boundary. The resulting best combination of ASOs (from each exon-exon boundary) was then transfected in combination with each of the 19 15-mer ASOs that target a region spanning nucleotides −38 to −6 of the exons 26/27 boundary. The levels of spliced CFTR mRNA were then measured after induced expression using radioactive RT-PCR.

[4] = tested on: MECP2 S65X transcript; assay: MECP2 S65X minigene reporter, mRNA level after ASO transfection; type: cell-based, human; details: microwalk of 19 ASOs
Description: as §1
ASO microwalks are performed as previously described (7), altogether targeting a region that spans 33 nt from −6 to −38 of the 3′ end of exons that are EJC-bound (FIG. 2). […] Abrogation of NMD is assessed by RT-PCR, and the percentage of mutant transcript is calculated as described above. […]

For `NCC[C@H](O)C(=O)N[C@@H]1CC(N)[C@@H](O[C@H]2OC(CO)[C@@H](O)[C@H](O)C2N)[C@H](O[C@@H]2O[C@H](CN)[C@H](O)C2O)C1O` (some centres unmarked) [NB54], the “restoration of functional protein” value [1] is listed as “restore a significant amount of functional protein”.
In the case of `C[C@@H](O)C1O[C@H](O[C@@H]2C(N)C[C@@H](NC(=O)[C@@H](O)CCN)[C@@H](O)C2O[C@@H]2O[C@H](CN)[C@H](O)C2O)[C@@H](N)C(O)[C@@H]1O` (some centres unmarked) [NB84], the “restoration of functional protein” value [1] is listed as “restore a significant amount of functional protein”.
In the case of “TCTCAGGATCCACGT (all 2'-MOE, all phosphorothioate, methylation of C not given here) [SEQ ID NO: 16, ASO targeting HBB exon 2; 2′-O-methoxyethyl phosphorothioate (MOE-P=S) 15mer]”, the “mRNA levels of PTC-containing HBB transcript (T39)” value [2] was “increase in mRNA levels”.
In the case of “ACTGGGTTCATCAAG (listed as DNA, chemistry not given here) [SEQ ID NO: 83, ASO targeting CFTR exon 25]”, the “relative potency among ASOs of each CFTR exon-exon junction (screening)” value (“relative potency among ASOs … (screening)” for short) [3] was “most potent ASOs targeting each exon-exon junction”.
With “GCATTCCAGCATTGC (listed as DNA, chemistry not given here) [SEQ ID NO: 107, ASO targeting CFTR exon 26]” the “mRNA level of CFTR W1282X transcript, ASOs tested independently (relative potency)” value ([3]; CFTR 22-17 minigene, one ASO per exon-exon junction downstream of W1282X) was “most potent ASO” and the “relative potency among ASOs … (screening)” value [3] was “most potent ASOs targeting each exon-exon junction”.
In the case of “CTCAGGATCCACGTG (2'-MOE phosphorothioate, further chemistry not given here) [SEQ ID NO: 15, 2′-O-methoxyethyl phosphorothioate (MOE-P=S) 15mer]”, the “mRNA levels of PTC-containing HBB transcript (T39)” value [2] was “increase in mRNA levels” and the “relative potency among ASOs targeting HBB exon 2” value ([2]; microwalk of 19 ASOs, -38 to -6 from the exon 2/exon 3 junction) was “most potent ASO targeting HBB exon 2”.
With “TACTTCCCAGCAGAG (listed as DNA, chemistry not given here) [SEQ ID NO: 25]” the “relative potency among ASOs targeting MECP2 exon 3” value [4] was “most potent ASO targeting MECP2 exon 3”.
For “CATATTTCTTGATCA (listed as DNA, chemistry not given here) [SEQ ID NO: 65, ASO targeting CFTR exon 24]”, the “relative potency among ASOs … (screening)” value [3] was “most potent ASOs targeting each exon-exon junction”.
In the case of `NC[C@H]1O[C@@H](OC2C(O)[C@H](N)CC(N)[C@H]2O[C@H]2OC(CO)[C@@H](O)C(O)C2N)C(O)C1O` (some centres unmarked) [NB30], the “restoration of functional protein” value [1] is given as “restore a significant amount of functional protein”.
